# Measurements reported in patent US7390817B2, “Combinations of a vanilloid antagonist and an NSAID for the treatment of pain” (Glaxo Group Limited, priority 2002, dated 2008).
# Test system: FCA-induced mechanical hypersensitivity
# Experiment: Guinea Pig FCA Model (mechanical hyperalgesia, paw pressure)
# Assay type: in vivo
# Conditions: male Dunkin-Hartley guinea-pigs, FCA intraplantar left paw, oral dosing 24 hours later, reading 1 hour after drug administration; Compound A 1.5 mg/kg, Compound B 1 mg/kg
# Protocol: 100 μl of 1 mg/ml FCA was injected intraplantar into the left paw of 6 groups of 6 male Dunkin-Hartley guinea-pigs (average weight 330 g) in order to induce inflammation and evoke a mechanical hypersensitivity (Ref. Stein, C., Millan, M. J., and Herz, A., Unilateral inflammation of the hind paw in rats as a model of prolonged noxious stimulation: alterations in behaviour and nociceptive thresholds, Pharmacol. Biochem. Behav., 31 (1988) 445-451). 24 hours later 1.5 mg/kg rofecoxib, 1 mg/kg N-(2-Bromophenyl)-N′-[((R)-1-(5-trifluoromethyl-2-pyridyl)pyrrolidin-3-yl)]urea and a combination of both was administered orally with the vehicle being 1% methylcellulose, the dosing volume being 2 ml/kg and dosing straight into the stomach. The methylcellulose was added gradually to the compound into the pestle and mortar and ground together. The mixtures were then sonnicated for 20 minutes. Behavioural readouts of mechanical hyperalgesia were obtained before FCA adminsitration (naive reading), after FCA but before drug administration (predose reading) and 1 hour after drug administration. […] The readout used was paw withdrawal in response to paw pressure (Ref. Randall L O, Selitto J J. (1957) A method for measurement of analgesic activity on inflammed tissue. Arch Int. Pharmacodyn 61, 409419.) and the end point was paw withdrawal. […]
row,Compound,% reversal of mechanical hypersensitivity
1,"O=C(Nc1ccccc1Br)N[C@@H]1CCN(c2ccc(C(F)(F)F)cn2)C1 [Compound B, N-(2-Bromophenyl)-N′-[((R)-1-(5-trifluoromethyl-2-pyridyl)pyrrolidin-3-yl)]urea]",32.5%
2,"CS(=O)(=O)c1ccc(C2=C(c3ccccc3)C(=O)OC2)cc1 [Compound A, rofecoxib]",30.6%
